target: T1, Recombinant human His-tagged Trim24-PHD-bromodomain (Homo sapiens, UniProt O15164); test: Trim24 AlphaScreen Assay; type: binding; conditions: 5 nM Trim24 protein, 15 nM biotinylated H3K23ac (1-33aa) peptide
T1 construct: Recombinant human His-tagged Trim24-PHD-bromodomain (produced in-house); made in house
T1 sequence (O15164 824-1006 limits assumed): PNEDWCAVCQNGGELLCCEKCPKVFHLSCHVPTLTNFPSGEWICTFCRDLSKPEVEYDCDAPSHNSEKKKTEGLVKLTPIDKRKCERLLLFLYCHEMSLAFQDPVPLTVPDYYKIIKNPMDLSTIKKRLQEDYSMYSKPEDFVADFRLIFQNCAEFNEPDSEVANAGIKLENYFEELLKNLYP
In short: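 His-tagged Trim24-PHD-bromodomain, biotinylated H3K23ac (1-33aa) peptide and compound incubated 1 h at room temperature in 50 mM Hepes pH 7.5, 100 mM NaCl, 0.12 mM Triton X-100.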

Row | SMILES | IC50
1 | COc1ccc(S(=O)(=O)Nc2cc3c(cc2Oc2cccc(OCc4ccncc4)c2)n(C)c(=O)n3C)cc1OC [Example 31, N-(1,3-dimethyl-2-oxo-6-(3-(pyridin-4-ylmethoxy)phenoxy)-2,3-dihydro-1H-benzo[d]imidazol-5-yl)-3,4-dimethoxybenzenesulfonamide] | 100 to 1000 nM
2 | CCCOc1cc(OCCCN)cc(Oc2cc3c(cc2NS(=O)(=O)c2ccc(OC)c(OC)c2)n(C)c(=O)n3C)c1 [Example 216, N-(6-(3-(3-aminopropoxy)-5-propoxyphenoxy)-1,3-dimethyl-2-oxo-2,3-dihydro-1H-benzo[d]imidazol-5-yl)-3,4-dimethoxybenzenesulfonamide] | 10 to 100 nM
3 | CCCOc1cc(OCCCOC)cc(Oc2cc3c(cc2NS(=O)(=O)c2ccc(OCC)c(C)c2)n(C)c(=O)n3C)c1 [Example 161, 4-ehoxy-N-(6-(3-(3-methoxypropoxy)-5-propoxyphenoxy)-1,3-dimethyl-2-oxo-2,3-dihydro-benzo[d]imidazol-5-yl)-3-methylbenzenesulfonamide] | 100 to 1000 nM
4 | CCCOc1cc(OCCCCN)cc(Oc2cc3c(cc2NS(=O)(=O)c2ccc(OC)c(OC)c2)n(C)c(=O)n3C)c1 [Example 196, N-(6-(3-(4-aminobutoxy)-5-propoxyphenoxy)-1,3-dimethyl-2-oxo-2,3-dihydro-1H-benzo[d]imidazol-5-yl)-3,4-dimethoxybenzenesulfonamide] | 1 to 10 nM
5 | CCCOc1cc(OCCCCN)cc(Oc2cc3c(cc2NS(=O)(=O)c2ccccn2)n(C)c(=O)n3C)c1 [Example 198, N-(6-(3-(4-aminobutoxy)-5-propoxyphenoxy)-1,3-dimethyl-2-oxo-2,3-dihydro-1H-benzo[d]imidazol-5-yl)pyridine-2-sulfonamide] | 10 to 100 nM
6 | CCCOc1cc(OCCCCCCN)cc(Oc2cc3c(cc2NS(=O)(=O)c2cccc(C(=O)O)c2)n(C)c(=O)n3C)c1 [Example 220, 3-(N-(6-(3-((6-aminohexyl)oxy)-5-propoxyphenoxy)-1,3-dimethyl-2-oxo-2,3-dihydro-1H-benzo[d]imidazol-5-yl)sulfamoyl)benzoic acid] | 100 to 1000 nM
7 | Cn1c(=O)n(C)c2cc(Oc3cccc(OCc4ccccc4)c3)c(NS(=O)(=O)c3ccsc3)cc21 [Example 21, N-(6-(3-(benzyloxy)phenoxy)-1,3-dimethyl-2-oxo-2,3-dihydro-1H-benzo[d]imidazol-5-yl)thiophene-3-sulfonamide] | > 1000 nM

Second part, the molecule after the results:

Row | IC50 | SMILES
8 | 1 to 10 nM | CCCOc1cc(OCCCCCCN)cc(Oc2cc3c(cc2NS(=O)(=O)c2cccnc2)n(C)c(=O)n3C)c1 [Example 183, N-(6-(3-((6-aminohexyl)oxy)-5-propoxyphenoxy)-1,3-dimethyl-2-oxo-2,3-dihydro-1H-benzo[d]imidazol-5-yl)pyridine-3-sulfonamide]
9 | 10 to 100 nM | CCCOc1cc(OCCCCCCO)cc(Oc2cc3c(cc2NS(=O)(=O)c2ccc(OC)c(OC)c2)n(C)c(=O)n3C)c1 [Example 179, N-(6-(3-((6-hydroxyhexyl)oxy)-5-propoxyphenoxy)-1,3-dimethyl-2-oxo-2,3-dihydro-1H-benzo[d]imidazol-5-yl)-3,4-dimethoxybenzenesulfonamide]
10 | 1 to 10 nM | Cc1c(S(=O)(=O)Nc2cc3c(cc2Oc2cc(OCCCCCCN(C)C)cc(OCC(F)(F)F)c2)n(C)c(=O)n3C)cnn1C [Example 215, N-(6-(3-((6-(dimethylamino)hexyl)oxy)-5-(2,2,2-trifluoroethoxy)phenoxy)-1,3-dimethyl-2-oxo-2-3,-dihydro-1H-benzo[d]imidazol-5-yl)-1,5-dimethyl-1H-pyrazole-4-sulfonamide]
11 | 1 to 10 nM | Cn1cnc(S(=O)(=O)Nc2cc3c(cc2Oc2cc(OCCCCCCN)cc(OCC(F)(F)F)c2)n(C)c(=O)n3C)c1 [Example 202, N-(6-(3-((6-aminohexyl)oxy)-5-(2,2,2-trifluoroethoxy)phenoxy)-1,3-dimethyl-2-oxo-2,3-dihydro-1H-benzo[d]imidazol-5-yl)-1-methyl-1H-imidazole-4-sulfonamide]

From US20160060260A1, “BROMODOMAIN INHIBITORS FOR TREATING DISEASE” (Board of Regents, The University of Texas System, priority 2014, published 2016)
